Assay results published in patent publication US10450549B2, “Aryloxyphenoxypropionate tolerance in turfrgass species and use of AAD1 as a selectable marker” (Dow AgroSciences, LLC, priority 2004, dated 2019).

Experiments:
[1] = system: creeping bentgrass cv Crenshaw callus; assay: Callus selection conditions with quizalofop and haloxyfop: creeping bentgrass; assay type: cell-based, Agrostis stolonifera
Procedure: Selection conditions for creeping bentgrass cv Crenshaw and Kentucky bluegrass cv Shamrock were established using the grass-active herbicides, quizalofop and haloxyfop. Concentrations of quizalofop and haloxyfop ranged from 0 to 300 nM dissolved in defined callus maintenance media for each species. Callus tissue, derived from mature seeds of each species or cultivar, was used in the experiment. In the case of creeping bentgrass cv Crenshaw, calli maintained on CBG-3 medium were transferred to plates of CBG-3 medium containing either haloxyfop or quizalofop at 0, 50, 100, 150, 200, 250, and 300 nM final concentrations. Visual observations (growth of callus and development of necrosis) were made over a period of 1.5 months. For Kentucky bluegrass cv Shamrock and experimental line A98, calli maintained on KBG-2 were transferred to plates of KBG-2 medium containing 0, 50, 100, 150, 200, 250, and 300 nM final concentrations of the herbicides. Visual observations of callus growth and necrosis were made over a 2.5 month period. […] The calli became necrotic at lower concentrations of quizalofop relative to haloxyfop and the response was more rapid. […]

[2] = system: Hi-II corn grown from seed; assay: Lethal dose of AOPP herbicides on non-transformed Hi-II corn
[3] = system: AAD1-transformed T0 ‘Crenshaw’ creeping bentgrass events (pDAB3878, pDAB5042); assay: Quizalofop-p-ethyl postemergence on AAD1-transformed T0 Crenshaw creeping bentgrass, visual % injury; assay type: in vivo, Agrostis stolonifera L. var. palustris
Procedure: After molecular confirmation was utilized to identify transgenic events, a number of transgenic events were tested for herbicide tolerance. Specific isolated transgenic events were selected and maintained vegetatively through division of the crowns and replanting the clonal pieces into fresh growth medium. Clonally propagated plants were maintained by periodic “mowing” of vegetative tissues.
Growth medium was prepared by mixing Promix® and sand in a 2 to 1 ratio. The medium was contained in plastic pots with a surface area of 84.6 square centimeters (cm^2). When required to maintain plant health, a fungicide, insecticide, and/or other chemical or physical treatment was applied to stock plants. The plants were maintained in a greenhouse with an approximate 14 hour photoperiod which was maintained at 24-27° C. during the day and 22-25° C. during the night. Nutrients (Peters Excel® 15-5-15 5-Ca 2-Mg and iron chelate) were applied in the irrigation solution as needed, and water was added on a regular basis. Supplemental lighting was provided with overhead metal halide 1000-Watt lamps when photosynthetically active radiation (PAR) dropped below 500.
(§1) Selected T0 plants were sprayed with quizalofop-p-ethyl (Assure II®, DUPONT, Wilmington, Del.) at rates ranging from 60 to 2,240 g ae/ha. […] This rate also controls susceptible monocot weed species. Measured amounts were placed individually in 25 mL glass vials and dissolved in a 4 mL volume of 1.0% (v/v) Agri-Dex® Crop Oil Concentrate (COC) from HELENA CHEMICAL (Collierville, Tenn.). Application solutions were prepared by serial dilution of the highest rate applied. One-half the volume of the highest rate stock solution (2 mL) was transferred to a clean 25 mL vial containing an equal volume of 1% COC and the diluted solution was mixed. Additional dilutions were prepared similarly by removing one-half the volume of the previous concentration (2 mL), and adding to an equal volume of 1% COC and mixing. When preparing the lowest concentration, the remaining one-half volume was discarded. All 2 mL stock solutions were further diluted by adding 10 mL aqueous mixture of 1.0% (v/v) COC, so that the final spray solutions were 12 mL in volume and contained 1.0% (v/v) COC.
(§2) Spray solutions were applied to the plant material with an overhead Mandel™ track sprayer equipped with a 8002E nozzles calibrated to deliver 187 L/ha over an application area of 0.503 square meters (m^2) at a spray height of 18 inches (46 cm) above average plant canopy height. Control plants were sprayed in the same manner with the COC blank.
(§3) The treated plants and control plants were placed in a greenhouse, and watered by sub-irrigation to prevent wash-off of the test compounds. At various times after application, the condition of the test plants as compared with that of the untreated plants was determined visually and scored on a scale of 0 to 100 percent (where 0 corresponds to no injury or growth inhibition and 100 corresponds to complete kill). Regenerated, non-transformed (NT) ‘Crenshaw’ or elite line 2905-2 creeping bentgrass plants and/or seed-derived clonally propagated plants served as quizalofop sensitive controls.

[4] = system: non-transformed (NT) and seed-derived (WT) creeping bentgrass; assay: Quizalofop-p-ethyl postemergence on non-transformed / seed-derived creeping bentgrass controls; assay type: in vivo, Agrostis stolonifera L. var. palustris
Procedure: as §1, §2, §3

CC(Oc1ccc(Oc2ncc(C(F)(F)F)cc2Cl)cc1)C(=O)O (centres unmarked) [haloxyfop]
concentration sufficient to kill callus within six weeks [1]: 250 nM | lethal dose ([2]; Gallant super + 1% COC (v/v)): 8.8 g ae/ha) | rate that effectively kills (>95% injury) three to four leaf Hi-II corn ([2]; postemergence, commercial formulations): 8.8 g ae/ha

CCOC(=O)[C@@H](C)Oc1ccc(Oc2cnc3cc(Cl)ccc3n2)cc1 [quizalofop-p-ethyl]
injury of events CBG12 and CBG23 ([3]; 120 g ae/ha): uninjured | injury of events CBG12 and CBG23 ([3]; 480 g ae/ha): less than 10% | Mean % Injury (SE) ([3]; event CBG2, 120 g ae/ha, 11 DAA): 30 (0) % | Mean % Injury (SE) ([3]; event CBG2, 120 g ae/ha, 14 DAA): 30 (0) % | Mean % Injury (SE) ([3]; event CBG2, 120 g ae/ha, 20 DAA): 25 (0) % | Mean % Injury (SE) ([3]; event CBG2, 480 g ae/ha, 11 DAA): 45% | Mean % Injury (SE) ([3]; event CBG2, 480 g ae/ha, 14 DAA): 45% | Mean % Injury (SE) ([3]; event CBG2, 480 g ae/ha, 20 DAA): 40% | Mean % Injury (SE) ([3]; event CBG4, 120 g ae/ha, 11 DAA): 70 (0) % | Mean % Injury (SE) ([3]; event CBG4, 120 g ae/ha, 14 DAA): 85 (0) % | Mean % Injury (SE) ([3]; event CBG4, 120 g ae/ha, 20 DAA): 90 (3) % | Mean % Injury (SE) ([3]; event CBG5, 120 g ae/ha, 11 DAA): 32 (6) % | Mean % Injury (SE) ([3]; event CBG5, 120 g ae/ha, 14 DAA): 42 (8) % | Mean % Injury (SE) ([3]; event CBG5, 120 g ae/ha, 20 DAA): 23 (7) % | Mean % Injury (SE) ([3]; event CBG5, 480 g ae/ha, 11 DAA): 30 (5) % | Mean % Injury (SE) ([3]; event CBG5, 480 g ae/ha, 14 DAA): 30 (5) % | Mean % Injury (SE) ([3]; event CBG5, 480 g ae/ha, 20 DAA): 10 (0) % | Mean % Injury (SE) ([3]; event CBG12, 120 g ae/ha, 11 DAA): 0 (0) % | Mean % Injury (SE) ([3]; event CBG12, 120 g ae/ha, 14 DAA): 0 (0) % | Mean % Injury (SE) ([3]; event CBG12, 120 g ae/ha, 20 DAA): 0 (0) % | Mean % Injury (SE) ([3]; event CBG12, 480 g ae/ha, 11 DAA): 5 (3) % | Mean % Injury (SE) ([3]; event CBG12, 480 g ae/ha, 14 DAA): 5 (3) % | Mean % Injury (SE) ([3]; event CBG12, 480 g ae/ha, 20 DAA): 5 (0) % | Mean % Injury (SE) ([3]; event CBG14, 120 g ae/ha, 11 DAA): 15 (5) % | Mean % Injury (SE) ([3]; event CBG14, 120 g ae/ha, 14 DAA): 18 (3) % | Mean % Injury (SE) ([3]; event CBG14, 120 g ae/ha, 20 DAA): 5 (5) % | Mean % Injury (SE) ([3]; event CBG14, 480 g ae/ha, 11 DAA): 30% | Mean % Injury (SE) ([3]; event CBG14, 480 g ae/ha, 14 DAA): 25% | Mean % Injury (SE) ([3]; event CBG14, 480 g ae/ha, 20 DAA): 15% | Mean % Injury (SE) ([3]; event CBG23, 120 g ae/ha, 11 DAA): 0 (0) % | Mean % Injury (SE) ([3]; event CBG23, 120 g ae/ha, 14 DAA): 0 (0) % | Mean % Injury (SE) ([3]; event CBG23, 120 g ae/ha, 20 DAA): 0 (0) % | Mean % Injury (SE) ([3]; event CBG23, 480 g ae/ha, 11 DAA): 7 (2) % | Mean % Injury (SE) ([3]; event CBG23, 480 g ae/ha, 14 DAA): 7 (3) % | Mean % Injury (SE) ([3]; event CBG23, 480 g ae/ha, 20 DAA): 0 (0) % | Mean % Injury (SE) ([3]; event CBG27, 120 g ae/ha, 11 DAA): 68 (3) % | Mean % Injury (SE) ([3]; event CBG27, 120 g ae/ha, 14 DAA): 75 (5) % | Mean % Injury (SE) ([3]; event CBG27, 120 g ae/ha, 20 DAA): 75 (5) % | Mean % Injury (SE) ([3]; event CBG27, 480 g ae/ha, 11 DAA): 85% | Mean % Injury (SE) ([3]; event CBG27, 480 g ae/ha, 14 DAA): 85% | Mean % Injury (SE) ([3]; event CBG27, 480 g ae/ha, 20 DAA): 85% | Mean % Injury (SE) ([3]; event CBG31, 120 g ae/ha, 11 DAA): 0% | Mean % Injury (SE) ([3]; event CBG31, 120 g ae/ha, 14 DAA): 5% | Mean % Injury (SE) ([3]; event CBG31, 120 g ae/ha, 20 DAA): 0% | Mean % Injury (SE) ([3]; event CBG32, 120 g ae/ha, 11 DAA): 5 (0) % | Mean % Injury (SE) ([3]; event CBG32, 120 g ae/ha, 14 DAA): 0 (0) % | Mean % Injury (SE) ([3]; event CBG32, 120 g ae/ha, 20 DAA): 0 (0) % | Mean % Injury (SE) ([3]; event CBG32, 480 g ae/ha, 11 DAA): 20% | Mean % Injury (SE) ([3]; event CBG32, 480 g ae/ha, 14 DAA): 20% | Mean % Injury (SE) ([3]; event CBG32, 480 g ae/ha, 20 DAA): 5% | Mean % Injury (SE) ([3]; event CBG33, 120 g ae/ha, 11 DAA): 8 (3) % | Mean % Injury (SE) ([3]; event CBG33, 120 g ae/ha, 14 DAA): 10 (0) % | Mean % Injury (SE) ([3]; event CBG33, 120 g ae/ha, 20 DAA): 5 (0) % | Mean % Injury (SE) ([3]; event CBG33, 480 g ae/ha, 11 DAA): 15% | Mean % Injury (SE) ([3]; event CBG33, 480 g ae/ha, 14 DAA): 15% | Mean % Injury (SE) ([3]; event CBG33, 480 g ae/ha, 20 DAA): 15% | Mean % Injury (SE) ([3]; event CBG38, 120 g ae/ha, 11 DAA): 14 (1) % | Mean % Injury (SE) ([3]; event CBG38, 120 g ae/ha, 14 DAA): 13 (3) % | Mean % Injury (SE) ([3]; event CBG38, 120 g ae/ha, 20 DAA): 6 (1) % | Mean % Injury (SE) ([3]; event CBG38, 480 g ae/ha, 11 DAA): 22 (4) % | Mean % Injury (SE) ([3]; event CBG38, 480 g ae/ha, 14 DAA): 22 (4) % | Mean % Injury (SE) ([3]; event CBG38, 480 g ae/ha, 20 DAA): 13 (2) % | Visual Injury 39 DAA ([4]; 240 g ae/ha, regenerated non-transformed control NT1): 95% | injury on non-transformed controls ([4]; both rates (120 and 480 g ae/ha)): ≥ 80% | Mean % Injury (SE) ([4]; non-transformed control NT1, 120 g ae/ha, 11 DAA): 83 (3) % | Mean % Injury (SE) ([4]; non-transformed control NT1, 120 g ae/ha, 14 DAA): 88 (3) % | Mean % Injury (SE) ([4]; non-transformed control NT1, 120 g ae/ha, 20 DAA): 90 (0) % | Mean % Injury (SE) ([4]; non-transformed control NT1, 480 g ae/ha, 11 DAA): 85 (0) % | Mean % Injury (SE) ([4]; non-transformed control NT1, 480 g ae/ha, 14 DAA): 90 (0) % | Mean % Injury (SE) ([4]; non-transformed control NT1, 480 g ae/ha, 20 DAA): 97 (2) % | Mean % Injury (SE) ([4]; non-transformed control NT2, 120 g ae/ha, 11 DAA): 80 (0) % | Mean % Injury (SE) ([4]; non-transformed control NT2, 120 g ae/ha, 14 DAA): 90 (0) % | Mean % Injury (SE) ([4]; non-transformed control NT2, 120 g ae/ha, 20 DAA): 93 (3) % | Mean % Injury (SE) ([4]; non-transformed control NT2, 480 g ae/ha, 11 DAA): 90 (0) % | Mean % Injury (SE) ([4]; non-transformed control NT2, 480 g ae/ha, 14 DAA): 90 (0) % | Mean % Injury (SE) ([4]; non-transformed control NT2, 480 g ae/ha, 20 DAA): 97 (2) % | GR90 (herbicide rate which produces 90% injury and/or growth inhibition) ([4]; seed grown plants): approximately 60 g ae/ha
